Literature values, collected in patent publication US10759976B2, “Color changeable adhesives and methods of making such adhesives” (Sensor International, LLC, priority 2018, dated 2020).

conditions: Table 2, carbon dioxide sensitive pigments/dyes

First: Cc1cc(O)c(C(C)C)cc1C1(c2cc(C(C)C)c(O)cc2C)OS(=O)(=O)c2ccccc21 [Thymol blue, thymolsulphonephthalein]
Second: O=S1(=O)OC(c2ccc(O)cc2)(c2ccc(O)cc2)c2ccccc21 [Phenol Red, phenolsulfonphthalein]
The pKa of the first is higher: 9.0 for the first, 7.6 for the second.

First: O=S(=O)(O)c1cc(O)c2ccc3c(S(=O)(=O)O)cc(S(=O)(=O)O)c4ccc1c2c34 [1, Hydroxypyrene-3,6,8-trisulphonic acid]
Second: Cc1cc(O)c(C(C)C)cc1C1(c2cc(C(C)C)c(O)cc2C)OC(=O)c2ccccc21 [Thymolphthalein, 3,3-bis(4-hydroxy-2-methyl-5-propan-2-ylphenyl)-2-benzofuran-1-one]
The pKa of the first is lower: 8.1 for the first, 9.7 for the second.

5′ and 6′-Carboxyseminaphtholrhodamine and “5′ and 6′-Carboxyseminaphtholfluorescein” are within 0.2 log units of each other in pKa: 7.5 for the first, 7.4 for the second.

Going from `O=C(O)Cc1cc(=O)oc2cc(O)ccc12` [7-hydroxycoumarin-4-acetic acid] to `Cc1cc(O)ccc1C1(c2ccc(O)cc2C)OS(=O)(=O)c2ccccc21` [m-Cresol Purple], the pKa rises from 7.8 to 8.3.

In the case of o-Cresolphthalein, the pKa is listed as 9.4.

same assay, conditions: Table 3, fluorimetric pigments/dyes

Compared with `O=S(=O)(O)c1cc(O)c2ccc3c(S(=O)(=O)O)cc(S(=O)(=O)O)c4ccc1c2c34` [1, Hydroxypyrene-3,6,8-trisulphonic acid], `NC(=O)NN=Cc1ccccc1O` [salicylaldehyde semicarbazone] is lower in pKa: 8.1 for the first, 7.8 for the second.

same assay, conditions: Table 4, ammonia sensitive pigments/dyes

First: Nitrazine yellow
Second: Cc1cc(O)c(C(C)C)cc1C1(c2cc(C(C)C)c(O)cc2C)OS(=O)(=O)c2ccccc21 [Thymol blue, thymolsulphonephthalein]
The pKa of the first is higher: 6.4 for the first, 1.6 for the second.

First: O=C([O-])c1c(Cl)c(Cl)c(Cl)c(Cl)c1-c1c2cc(Br)c(=O)c(Br)c-2oc2c(Br)c([O-])c(Br)cc12.[Na+].[Na+] [Phloxine B]
Second: O=S1(=O)OC(c2ccc(O)cc2)(c2ccc(O)cc2)c2ccccc21 [Phenol Red, phenolsulfonphthalein]
The pKa of the first is lower: 2.5 for the first, 7.6 for the second.

First: CN(C)c1ccc(/N=N/c2ccccc2C(=O)O)cc1 [Methyl red]
Second: O=C1c2ccccc2C(=O)c2c1cc(S(=O)(=O)O)c(O)c2O [Alizarin red S]
The pKa of the first is higher: 5.4 for the first, 4.5 for the second.

Going from `CCN(CC)c1ccc(N=Nc2ccc(S(=O)(=O)[O-])cc2)cc1.[K+]` [Ethyl orange] to `Cc1c(C2(c3cc(Br)c(O)c(Br)c3C)OS(=O)(=O)c3ccccc32)cc(Br)c(O)c1Br` [Bromocresol green], the pKa rises from 4.3 to 4.7.

Compared with `O=C1c2ccccc2C(=O)c2c1ccc(O)c2O` [Alizarin], `CN(C)c1ccc(N=Nc2ccc(S(=O)(=O)[O-])cc2)cc1.[Na+]` [Methyl Orange] is lower in pKa: 6.8 for the first, 4.2 for the second.

Going from `Cc1cc(O)ccc1C1(c2ccc(O)cc2C)OS(=O)(=O)c2ccccc21` [m-Cresol Purple] to `O=S1(=O)OC(c2cc(Br)c(O)c(Br)c2)(c2cc(Br)c(O)c(Br)c2)c2ccccc21` [Bromophenol blue], the pKa rises from 1.5 to 3.9.

Going from `O=S1(=O)OC(c2ccc(O)c(Cl)c2)(c2ccc(O)c(Cl)c2)c2ccccc21` [Chlorophenol red] to `O=S1(=O)OC(c2cc(Cl)c(O)c(Br)c2)(c2cc(Cl)c(O)c(Br)c2)c2ccccc21` [Bromochlorophenol blue], the pKa falls from 6.3 to 6.0.

In the case of `CN(C)c1ccc(N=Nc2ccccc2)cc1` [Methyl yellow], the pKa is given as 3.3.
